# From patent US8367098B2, “Unique combinations of antimicrobial compositions” (The Population Council, Inc., priority 2002, dated 2013)
# What was measured:
# [1] = Diffusion of NES through dialysis membrane (HPLC); assay type: physicochemical; conditions: membrane cutoff 1000, HPLC
# Excerpt: We examined diffusion of NES through a dialysis membrane with a molecular weight cutoff of 1000. The molecular weight of NES is 370. […] Results are illustrated in FIG. 10. […] However, the rate of diffusion observed through the dialysis membrane cannot be related to the rate of diffusion that would be observed in the human vagina as the rate of diffusion was dependant on the surface area of the dialysis bag. Conditions in the vagina would be different.
# Diffusion of NES from CARRA/NES was investigated by two different methods, membrane dialysis and Ultrafree-15 centrifugation. In the membrane dialysis experiments, the membrane cutoff is 1,000, and diffusion of NES was measured by HPLC. […] In the Ultrafree-15 centrifugation experiments, a Millipore, Ultrafree-15 centrifugal filter and tube assembly was employed, which allows the passage of molecules of a MW<500 pass through; NES MW is 370.
# [2] = system: HIV-1; conditions: p24 ELISA and RT; cited from earlier work
# [3] = in vivo; cited from earlier work
# [4] = in vivo, po; cited from earlier work
Molecule,effect on HIV-1 production [2],also measured
"C=C1C[C@H]2[C@@H]3CCC4=CC(=O)CC[C@@H]4[C@H]3CC[C@]2(C)[C@@]1(OC(C)=O)C(C)=O [NES, 16-methylene-17α-acetoxy-19-norpregn-4-ene-3,20-dione]",–,diffusion of NES through dialysis membrane [1]: diffused from the dialysis bag at a constant rate
CC(=O)[O-].CC(=O)[O-].[Cd+2] [cadmium acetate],inhibited HIV-1 production,–
[Cl][Hg][Cl] [mercury chloride],inhibited HIV-1 production,–
[Cl-].[Cl-].[Zn+2] [zinc chloride],inhibited HIV-1 production,–
Carrageenan,–,"toxicity by oral, dermal, and inhalation routes [3]: non-toxic; absorption from the gastrointestinal tract [4]: virtually non-existent"
